What was measured:
NMR H/D exchange studies = format: physicochemical
Method: Compound 7 (˜4 mg, ˜10 μmol) was dissolved in CD3OD (0.75 mL), and D2O (2 drops) was added. The reaction mixture was kept at rt and monitored by NMR (400 MHz). […] NaOD (30% w/w in D2O, 2 drops) was then added, and the solution monitored by NMR. […] After 25 h, the C5 proton peak completely disappeared.
To rule out the possibility that the loss of the C5 proton peak was due to decomposition, the resulting mixture was evaporated at rt under reduce pressure, and the residue was redissolved in CH3OH and allowed to stir for 1 day. The mixture was then evaporated to dryness in vacuo, and redissolved in CD3OD. The NMR spectrum was quickly taken, and the C5 proton peak was again observed. As before, the C5 proton peak slowly disappeared over a 1-day period.
To evaluate the importance of the imine bond on the acidity of the C5 proton, proline was dissolved in 0.75 mL CD3OD and 0.20 mL D2O and treated with […].

PylS-His6 [1] = target: T1, PylS-His6 (Methanosarcina barkeri, UniProt Q6WRH6)
T1 sequence (Q6WRH6 whole entry): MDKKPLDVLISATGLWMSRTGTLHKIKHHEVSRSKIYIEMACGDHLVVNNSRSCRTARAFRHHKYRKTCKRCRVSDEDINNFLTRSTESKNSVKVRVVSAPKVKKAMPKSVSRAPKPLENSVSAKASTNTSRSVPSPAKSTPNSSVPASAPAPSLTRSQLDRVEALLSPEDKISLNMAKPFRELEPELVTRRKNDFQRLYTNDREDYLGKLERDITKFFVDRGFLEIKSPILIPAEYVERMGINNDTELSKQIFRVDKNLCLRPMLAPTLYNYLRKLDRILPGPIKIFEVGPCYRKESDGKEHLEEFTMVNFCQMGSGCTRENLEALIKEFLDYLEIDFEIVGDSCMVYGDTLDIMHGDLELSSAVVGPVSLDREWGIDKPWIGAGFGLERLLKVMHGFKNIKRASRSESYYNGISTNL
Method: The pyrophosphate exchange reaction was essentially performed following the method of Cole and Schimmel. All reactions were performed in duplicate at 37° C. The 100 to 200 μl reactions contained (unless noted) 0.3 to […] PylSHis6. […] The specific activity of the radiolabel was adjusted from 4 to 10 dpm/pmol). The concentration of protein was 0.3 to 1 μM. At specific times, 25 μl aliquots were removed and quenched in 500 μl of a stop solution containing 1.6% (w/v) activated acid-washed charcoal (Sigma Chemical Co., St. Louis, Mo.), 80 mM sodium tetrapyrophosphate, and 3.5% (v/v) perchloric acid. Samples were filtered through Whatman GF/C glass-fiber filters and then the filter was washed three times with 5 ml of 40 mM sodium tetrasodium pyrophosphate solution containing 1.7% perchloric acid (v/v) and once with 5 ml 100% ethanol. Filters were dried at 80° C. for 5 minutes then placed in 20 ml scintillation vials containing 10 ml of Ultima Gold F scintillation cocktail (PerkinElmer), shaken once, and counted in a liquid scintillation analyzer. Identical reactions without amino acid, ATP, or enzyme were also set up as negative controls in duplicate. […] One substrate was kept constant at a concentration higher than its respective apparent Km value.

PylS-His6 [2] = target: T1, PylS-His6; experiment: Aminoacylation of tRNACUA, acid-urea gel shift and northern blot; format: biochemical; parameters: made in house; host or cells: E. coli BL21 (DE3)
Method: (§1) The reaction was terminated after 5-30 min at 37° C. with an equal volume of 0.3 M sodium acetate, 8 M urea pH 5.0. Charged and uncharged tRNA were separated by acid-urea acrylamide gel electrophoresis, blotted to nitrocellulose and probed with a 5μ ^32P-end-labelled, 72-base oligonucleotide complementary to tRNACUA. Radioactivity was analysed with a STORM Phosphorimager (Amersham Biosciences).
Aminoacylation assay in acid-urea gels. […] Following incubation at 37° C. for 5 to 30 minutes, the reaction was terminated by addition of an equal volume of 2× loading dye (0.3 M sodium acetate, 8 M urea, pH 5.0) and charged and uncharged tRNA species analysed by acid-urea acrylamide gel electrophoresis following the methods outlined in Jester et al. Samples were electrophoresed in 14% polyacrylamide gels buffered with a 0.3 M sodium acetate-7 M urea solution, pH 5.0, at 50 volts and 4° C. for 24 hours. The same buffer without urea was used in the electrode chambers, and was replaced with fresh buffer every 6-8 hours. Finished gels were transblotted for 2 hours at 40 volts in 4° C. in a blotting solution of 10 mM Tris-acetate, 5 mM sodium acetate, and 0.5 mM EDTA, pH 8.0. The blot was then cross-linked by ultraviolet radiation (15000 μJ/cm2 per side) then prehybrized in 0.25 M sodium phosphate buffer, pH 7.2, and 5.7% SDS for at least 30 minutes. In order to detect charged and uncharged tRNACUA a 72 base oligonucleotide complementary to full length of tRNACUA was labeled with γ-^32P ATP and polynucleotide kinase. The probe was hybridized with the blot overnight at room temperature, then agitated at 22° C. for 5 minute in 10 mM sodium citrate, 150 mM NaCl, 1% SDS, pH 7.0, then agitated with two changes of 5 mM sodium citrate, 75 mM sodium chloride, 1% SDS, pH 7.0, for 5 minutes each. Radioactivity on the blot was imaged and analyzed using a STORM Phosphorimager (Amersham Biosciences).

[3] = Stability studies to NaOH, LiOH, TFA (TLC); format: physicochemical
Method: Stability Studies of Compound (8) to NaOH. NaOH (6 M, 20 μL, 0.12 mmol) was added to a solution of compound 8 (0.15 M, 100 μL, 0.015 mmol). The resulting mixture was allowed to react at rt over 3 days, during which the degradation of compound 8 was monitored by a ninhydrin TLC assay (CHCl3—MeOH—NH4OH(aq)=2:2:1).
Stability Studies of Compound (8) to LiOH. Compound 8 (21.9 mg, 84 μmol) was dissolved in water (2 mL) and LiOH-H2O (84.5 mg, 2.0 mmol) was added. This mixture was allowed to react at rt. […] After 5 days, the solution was evaporated to dryness at rt, redissolved in MeOH (0.5 mL), and purified on chromatography silica gel.
Stability Studies of Compound (8) to TFA. Compound 8 (21.7 mg, 0.083 mmol) was dissolved in MeOH (2 mL) and TFA (200 μL) was added. […] The mixture was allowed to react to completion for 2 days at rt. The resulting mixture was evaporated to dryness, dissolved in MeOH (0.5 mL), and subjected to chromatography on silica gel.

[4] = test system: E. coli BL21 (DE3) expressing pylT, pylS and mtmB1; experiment: Pyrrolysine-dependent amber suppression (mtmB1 UAG readthrough, anti-MtmB immunoblot); format: cell-based; conditions: 1 mM in the medium, induced 4 h
Method: To test for amber suppression, overnight cultures were grown in Luria-Bertani broth (3 ml) with 100 μg ml^−1 ampicillin. Subsequently, 200 μl was inoculated into 1 ml fresh medium and grown to a D600 of 0.6. […] The mtmB1 gene products in equivalent amounts of lysates were then analysed by immunoblotting of a SDS 12.5% polyacrylamide gel with affinity-purified rabbit anti-MtmB antibody^6. The Rainbow Molecular Weight markers (Amersham Biosciences) were used.
To test for amber suppression, overnight cultures of a strain bearing one of the plasmids were grown in LB broth (3 mL) with 100 ug/ml final ampicillin. Subsequently, 200 μl of each culture was inoculated into 1 ml of fresh LB medium with ampicillin, and grown to an A600 of approximately 0.6. […] The cultures were then centrifuged for 1 minute 16,000×g, and the cell pellets lysed in 125 mM Tris HCl, 4.6% SDS, 20% glycerol and 10% (v/v) β-mercaptoethanol, pH 6.8, at 90 degrees for 10 minutes.
Extracts were electrophoresed in a 12.5% SDS-PAGE gel, then electroblotted overnight at 150 mA onto PVDF membrane (Bio-Rad Labs, Hercules, Calif.). The membrane was then incubated for 1 hour at room temperature with Western Breeze blocking solution (Invitrogen). […]

His6-PylS = target: T2, His6-PylS (Methanosarcina barkeri, UniProt Q6WRH6); experiment: Gel-shift aminoacylation assay with N-terminally His-tagged PylS; format: biochemical
T2 construct: His6 (hexahistidine) (N); made in house
T2 sequence (Q6WRH6 whole entry): as above
Method: as §1
Aminoacylation assay in acid-urea gels. […] Following incubation at 37° C. for 5 to 30 minutes, the reaction was terminated by addition of an equal volume of 2× loading dye (0.3 M sodium acetate, 8 M urea, pH 5.0) and charged and uncharged tRNA species analysed by acid-urea acrylamide gel electrophoresis following the methods outlined in Jester et al. Samples were electrophoresed in 14% polyacrylamide gels buffered with a 0.3 M sodium acetate-7 M urea solution, pH 5.0, at 50 volts and 4° C. for 24 hours. The same buffer without urea was used in the electrode chambers, and was replaced with fresh buffer every 6-8 hours. Finished gels were transblotted for 2 hours at 40 volts in 4° C. in a blotting solution of 10 mM Tris-acetate, 5 mM sodium acetate, and 0.5 mM EDTA, pH 8.0. […] Radioactivity on the blot was imaged and analyzed using a STORM Phosphorimager (Amersham Biosciences).

[5] = test system: E. coli BW25141(DE3) with pylT, pylS and UAG-mutant uidA; format: cell-based
Excerpt: In order to avoid interference by the residue uidA gene, we employed a strain with most ofuidA deleted, E. coli BW25141(DE3). This strain was transformed with pDLGUS, a variant of the pEC03 plasmid in which the mtmB1 gene was removed and the uidA gene introduced in its place.

With COC(=O)[C@H](CCCCNC(=O)[C@@H]1N=CC[C@H]1C)NC(=O)C(F)(F)F [Compound 7, Nα-Trifluoroacetyl-L-pyrrolysine methyl ester] the “change in NMR” value (NMR H/D exchange studies; CD3OD with D2O, rt, 3-day period) was “No change was observed” and the “time to complete disappearance of the C5 proton peak (H/D exchange)” value (NMR H/D exchange studies; NaOD added, CD3OD/D2O) was 25 h.
In the case of C[C@@H]1CC=N[C@H]1C(=O)NCCCC[C@H](N)C(=O)O [pyrrolysine, L-pyrrolysine], the “apparent Vmax” value (PylS-His6 [1]; exchange reaction) is reported as 120 nmol min^−1 per mg PylS, the “aminoacylation of tRNAIYS in the M. acetivorans tRNA pool” value (PylS-His6 [2]) is reported as “does not aminoacylate” and the “maximal conversion of deacylated tRNACUA to charged species” value (PylS-His6 [2]; deacylated M. acetivorans cellular tRNA pool, with ATP and PylS-His6) is reported as 50%. For the same compound, the “maximum of tRNACUA transcribed in vitro aminoacylated” value (PylS-His6 [2]; in vitro transcribed tRNACUA) was 43%, the “conversion under acidic conditions” value ([3]; acidic conditions) was “converted to its enamine form” and the “UAG readthrough of mtmB1 (50-kDa MtmB)” value [4] was “large amounts of 50-kDa MtmB”. The tRNA synthetase activity (His6-PylS) was “does have pyrrolysyl-tRNA synthetase activity”, the “increase of beta-glucuronidase activity” value ([5]; 1 mM synthetic pyrrolysine versus absence of pyrrolysine) was “approximately 100 fold” and the beta-glucuronidase activity ([5]; induced with IPTG, 1 mM synthetic pyrrolysine) was 4. umol/min·mg protein.
For O=C(O)[C@@H]1CCCN1 [proline, reference compound], the “H/D exchange of protons on ring carbons” value (NMR H/D exchange studies; CD3OD/D2O with base, rt, 1 day) was “No evidence for H/D exchange”.
For NCCCC[C@H](N)C(=O)O [lysine, reference compound], the “isotopic exchange into ATP above background” value (PylS-His6 [1]; 1 mM, up to 30 min) was “no detectable isotopic exchange”, the “aminoacylation of tRNAIYS in the M. acetivorans tRNA pool” value (PylS-His6 [2]) was “does not aminoacylate” and the “formation of charged tRNACUA species” value (PylS-His6 [2]; amino acids at 50 μM, cellular tRNA pool) was “not formed”. For the same compound, the “UAG readthrough of mtmB1 (50-kDa MtmB)” value [4] was “could not be replaced” and the tRNA synthetase activity (His6-PylS) was “no lysyl-tRNA synthetase activity was detectable”.
In the case of C[C@@H]1CC=N[C@H]1C(=O)NCCCC[C@H](N)C(=O)[O-].[Li+] [Compound 8, L-Pyrrolysine lithium salt], the “degradation by LiOH (TLC)” value ([3]; LiOH in water, rt, after 24 h) is reported as “two new bands”, the “degradation by NaOH (ninhydrin TLC)” value ([3]; NaOH, rt, over 3 days) is reported as “One new band” and the “degradation by TFA (TLC)” value ([3]; TFA in MeOH, after 1 h, complete in 2 days at rt) is reported as “one new band”.
In the case of Nc1ncnc2c1ncn2[C@@H]1O[C@H](COP(=O)(O)OP(=O)(O)OP(=O)(O)O)[C@@H](O)[C@H]1O [ATP], the Km (PylS-His6 [1]; read-out: apparent Km, 37° C., pH 7.2) is reported as 2 µM.

Reference: US20060183888A1 (priority 2004, published 2006)
